We go through four compounds from patent US20060275856A1, “Method for analyzing cell free notch cleavage and method for drug screening” (OSAKA INDUSTRIAL PROMOTION ORGANIZATION, priority 2003, published 2006).

Data set [1] has as its target T1, presenilin/γ-secretase (Homo sapiens, UniProt P49768).
T1 construct: A crude purified membrane fraction of K293 cells co-expressing F-NEXTΔC and swβAPP; endogenous in cells; host or cells: K293 (human embryonic kidney 293) cells co-expressing F-NEXTΔC and swβAPP; crude membrane fraction (CMF)
As to the kind of experiment: Multiple substrate cell-free assay system combining βAPP and Notch-1 (IP/MALDI-TOF MS of Aβ, AICD, F-Nβ, NICDΔC). The format is biochemical. How it is done:
In the case of cell-free γ-secretase assay, MS washing buffer composed of 4 time amount or more of 0.1% n-octylglucoside, 140 mM NaCl, 10 mM Tris (pH 8.0) and 0.025% sodium azide was added to an S1 or S2 fraction which was the supernatant of ultracentrifugation after the assay. The mixture was immunoprecipitated at 4° C. for 4 hours using 6636, 6618, 4G8 or M2 agarose. After the immunoprecipitation, the precipitate was washed three times at 4° C. for 10 minutes using the MS washing buffer. The precipitate was washed once more with 10 mM Tris (pH 8.0) containing 0.025% sodium azide, and then simply washed once more with water. A peptide bound to the specific antibody in the precipitate consequently obtained was eluted with TFA/acetonitrile/water (TFA: acetonitrile: water=1:20:20) saturated with α-cyano-4-hydroxy cinnamic acid. The solubilized sample was dried on a stainless plate, and analyzed by MALDI-TOF MS. MS peaks were calibrated by angiotensin (Sigma) and insulin β chain (Sigma).
Human embryonic kidney 293 cells (K293 cells) in which F-NEXTΔC and Sweden type mutant βAPP (swβAPP) had been constitutively co-expressed were made by transfecting with the Sweden type mutant βAPP using Lipofectamine 2000 (Invitrogen), selecting by G418 and subsequently, transfecting the cells expressing βAPP with F-NEXTΔC. It was confirmed first that F-NEXTΔC and swβAPP had been expressed in the lysate of this cell, and simultaneously that F-Nβ and Aβ had been released in the culture supernatant (FIG. 5A to 5C). The composition of F-Nβ and Aβ molecular species were examined and it was confirmed that they were not inconsistent with previous reports (results are not shown).
A crude purified membrane fraction of K293 cells co-expressing F-NEXTΔC and swβAPP, pretreated with 100 nM of L685,458 or 100 nM of DAPT for 2 hours before extracting the membrane fraction was used. The S1-40 min fraction was collected from this crude purified membrane fraction. The precipitate fraction after collecting the S1-40 min fraction was resuspended in the reaction buffer, and then sonicated for a short time. Subsequently the fraction was centrifuged at 100,000×g for 15 minutes to collect the supernatant fraction as the S2-40 min fraction.
The fractions were immunoprecipitated with the antibody specific for each fragment (4G8 for Aβ, 6618 for AICD, M2 agarose for F-Nβ and […] for NICDΔC), and analyzed using the MALDI-TOF mass analyzer (FIG. 8). NICDΔC and AICD de novo produced were identified in the S1-40 min fraction. F-Nβ and Aβ were identified in the S2-40 min fraction (FIG. 8). Even when the change was added to the multiple substrate cell-free assay system combining βAPP and Notch-1, the diversity in the proteolytic sites by the presenilin/γsecretase was conserved.
The cells co-expressing F-NEXTΔC and swβAPP were cultured up to the confluent phase, and treated with the γ-secretase inhibitor at each concentration for 3 hours. As the γ-secretase inhibitor, L685,458 which was a transition-state analogue which binds to an active center of the presenilin/γ-secretase and DAPT which was not the transition-state analogue were used. The cells after the treatment were washed twice with ice-cooled PBS to collect. These cells were lysed and homogenated to extract CMF. Subsequently, this membrane fraction was suspended in alkaline washing buffer and left stand at 4° C. for 30 minutes. Then, the resuspension and the centrifugation were repeated three times using the reaction buffer to wash out the alkaline washing buffer. It appears that most γ-secretase inhibitor contained in CMF was washed out until this process. Finally, CMF was suspended once more in the reaction buffer, and the cell-free reaction was performed. The amounts of AICD and NICDΔC in the S1-40 min fraction and the amounts of Aβ and Nβ in the S2-40 min fraction were semi-quantified from relative heights of MALDI-TOF MS peaks, and evaluated by four scales of −, +, ++ and +++.

Data set [2] addresses T1, presenilin/γ-secretase. Nature of the data set: Pulse-chase experiment: secretion of F-Nβ from K293 cells expressing F-NEXTΔC or F-NEXT. The format is cell-based. To be noted: 1 μM, pretreating for 2 hours (FIG. 4D). How it is done: In order to determine whether an N terminal fragment (NTF: F-Nβ) was released from the cells which had expressed F-NEXTΔC or F-NEXT as a result of proteolysis by presenilin/γ-secretase, the cells (K293 cells) which had stably expressed F-NEXTΔC or F-NEXT were cultured in a 10 cm dish up to a confluent phase. The cells were cultured in DMEM solution deprived of methionine (obtained by modifying a commercially available one from Gibco) for 45 minutes to be starved with methionine. Subsequently, the medium was replaced with the same DMEM solution deprived of methionine, and simultaneously the cells were metabolically pulse-labeled with 300 μCi of [^35S]-methionine/cysteine (Pro-mix, Amersham) for 30 minutes. Then the cells were chased in 10% FCS/DMEM for 2 hours.
After termination of a chase period, the medium was collected and immediately placed on ice. Then cell debris was eliminated by centrifuging at 3,000×g. Subsequently, a protease inhibitor cocktail (1:1000, Sigma) and 0.025% sodium azide were added. The sample was immunoprecipitated with 4G8 antibody or anti-FLAG-M2-agarose (Sigma) overnight, and a precipitate was washed three times with RIPA buffer containing 0.1% SDS, 0.5% deoxycholic acid and 1% Triton X-100. Subsequently, SDS-PAGE was performed using 10 to 20% gradient gel of Tris-tricine (Invitrogen). […]

In data set [3] the target is T1, presenilin/γ-secretase. Nature of the data set: Multiple substrate cell-free assay system combining βAPP and Notch-1 (IP/MALDI-TOF MS of Aβ, AICD, F-Nβ, NICDΔC). The format is biochemical. To be noted: cells pretreated at 1 μM and further 1 μM added in all buffers including homogenate and reaction buffer.
Data set [4] relates to F-NEXT V1744G.
The test system of data set [5] is FLAG-NEXT.
Chain of FLAG-NEXT (chain, as listed by the source): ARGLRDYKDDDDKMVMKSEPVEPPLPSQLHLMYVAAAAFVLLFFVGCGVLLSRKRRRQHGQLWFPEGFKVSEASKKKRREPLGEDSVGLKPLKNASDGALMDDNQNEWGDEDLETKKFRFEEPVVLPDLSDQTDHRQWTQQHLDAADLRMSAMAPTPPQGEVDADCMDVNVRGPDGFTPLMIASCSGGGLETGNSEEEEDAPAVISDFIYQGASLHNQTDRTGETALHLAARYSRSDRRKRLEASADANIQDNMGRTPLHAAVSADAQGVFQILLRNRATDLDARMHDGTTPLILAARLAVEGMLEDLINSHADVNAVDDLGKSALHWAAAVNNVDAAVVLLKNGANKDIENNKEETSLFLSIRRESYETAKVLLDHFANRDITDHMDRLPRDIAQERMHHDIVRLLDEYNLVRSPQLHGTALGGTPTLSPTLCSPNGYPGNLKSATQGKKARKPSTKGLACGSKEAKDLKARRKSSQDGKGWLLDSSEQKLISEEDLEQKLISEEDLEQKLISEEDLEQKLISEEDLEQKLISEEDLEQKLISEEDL
The subject of data set [6] is F-NEXT V1744L.
The mark [7] stands for this setting: pretreated at 1 μM, thoroughly washed out.

For `CC(C)C[C@H](NC(=O)[C@H](Cc1ccccc1)C[C@@H](O)[C@H](Cc1ccccc1)NC(=O)OC(C)(C)C)C(=O)N[C@@H](Cc1ccccc1)C(N)=O` [L685,458], in data set [1], the “action on γ49 and corresponding S3 cleavage” value was “less sensitively”; the “action upon γ40 and corresponding S4 cleavage” value is on record as “acted sensitively”. Moreover, in data set [1] (setting [7]), the “Aβ/Nβ, γ cleaved NTF (S4/γ40 cleavage)” value is reported as “not observed” and the “de novo production of AUCD/NICD which was γ cleaved CTF (S3/γ49 cleavage)” value is reported as “recognized”. The “peak heights of four fragments” value in data set [1] (pretreated with 10 nM) is given as “maximum on average”. Further, in data set [1] (pretreatment concentration decreased to 100 nM and 10 nM), the “de novo production of F-Nβ/Aβ” value is listed as “recovered”. The “secretion of F-Nβ” value in data set [2] is on record as “almost completely inhibited”. Moreover, the “production of F-Nβ, Aβ, NICDΔC and AICD (all of four fragments)” value in data set [3] was “not observed at all”.

For `C[C@H](NC(=O)Cc1cc(F)cc(F)c1)C(=O)N[C@H](C(=O)OC(C)(C)C)c1ccccc1` [DAPT], in data set [1], the “action on γ49 and corresponding S3 cleavage” value is on record as “less sensitively”; the “action upon γ40 and corresponding S4 cleavage” value is on record as “acted sensitively”. In addition, the “effects on the four fragments compared with L685,458” value in data set [1] (same pretreatment experiment (FIGS. 9A and 9B)) is recorded as “extremely similar”.

For the compound “PS1 D385N, dominant negative mutant of presenilin, stably expressed in K293 cells”, the “NICD production and decrease of the F-NEXT derivative after 2 hours' chase” value was “not only the NICD production but also the decrease of F-NEXT and its derivatives were not observed after 2 hours' chase” in data set [4]; “not only the NICD production but also the decrease of F-NEXT and its derivatives were not observed after 2 hours' chase” in data set [6]. For the same compound, the “NICD production and decrease of F-NEXT after 2 hours' chase” value in data set [5] was “not only the NICD production but also the decrease of F-NEXT and its derivatives were not observed after 2 hours' chase”.

In the case of “wild type PS1 (presenilin), stably expressed in K293 cells”, the “degradation of the F-NEXT derivative during 2 hours' chase” value in data set [4] was “F-NEXT V1744G and F-NEXT V1744L in the background of wild presenilin were degraded and their amounts were decreased during 2 hours' chase as with F-NEXT”; in data set [6] it was “F-NEXT V1744G and F-NEXT V1744L in the background of wild presenilin were degraded and their amounts were decreased during 2 hours' chase as with F-NEXT”.
